Assay results as given in US8986994B2, “Substituted pyridines and pyrimidines” (Technische Universitaet Wien, priority 2009, dated 2015).
Read-outs that look alike come from different tables or passages of the source.

How the values were obtained:
[1] = test system: Nkx2.5 (P19 cells); experiment: Nkx2.5 luciferase reporter assay in P19 cells; format: cell-based; settings: Mus musculus, read-out: Nkx2.5 activity
[2] = test system: TOPflash (P19 cells); experiment: TOPflash luciferase reporter assay in P19 cells; format: cell-based; settings: Mus musculus, read-out: TOPflash activity
[3] = test system: ANF (P19 cells); experiment: ANF promoter luciferase reporter assay in P19 cells; format: cell-based, mouse; settings: for fold induction at 1 µM: Mus musculus, read-out: ANF activity
[4] = test system: Nkx2.5 (C2C12 cells); experiment: Nkx2.5 luciferase reporter assay in C2C12 cells; format: cell-based; settings: Mus musculus, read-out: Nkx2.5 activity
[5] = test system: ANF (human primary skeletal myoblasts); experiment: ANF reporter assay in human primary skeletal myoblasts; format: cell-based; settings: 1 μM for 6 days, two experiments
[6] = test system: ANF (C2C12 cells); experiment: ANF promoter luciferase reporter assay in C2C12 cells; format: cell-based, mouse; settings: for fold induction at 1 µM: Mus musculus, read-out: ANF activity
[7] = test system: TOPflash (C2C12 cells); experiment: TOPflash luciferase reporter assay in C2C12 cells; format: cell-based; settings: Mus musculus, read-out: TOPflash activity
[8] = test system: Na currents in C2C12 cells; format: cell-based, mouse; settings: 1 μM for 8 days
[9] = test system: Ca currents in C2C12 cells; experiment: Electrophysiological testing, whole cell patch clamp: Ca currents; format: cell-based, mouse
[10] = 192 h, P19 cells, 1 μM for 8 days, luciferase signal vs control (untreated cells)
[11] = 192 h, C2C12 cells, 1 μM for 8 days, luciferase signal vs control (untreated cells)

Row | SMILES | fold induction at 1 µM [1, 10] | fold induction at 1 µM [2, 10] | fold induction at 1 µM [3, 10] | luciferase signal in all three reporter assays ([3]; P19 cells, 1 μM for 8 days, ANF, TOPflash and Nkx2.5 reporter assays together) | fold induction at 1 µM [4, 11] | luciferase signal in the ANF reporter assay [5] | luciferase signal in all three reporter assays ([6]; C2C12 cells, 1 μM for 8 days, ANF, TOPflash and Nkx2.5 reporter assays together) | fold induction at 1 µM [6, 11] | fold induction at 1 µM [7, 11] | melting point [°C] | tetrodotoxin (TTX)-resistance of the Na currents [8] | activation kinetics of Ca currents [9] | fold induction at 1 µM ([1]; P19, 192 h) | fold induction at 1 µM ([2]; P19, 192 h) | fold induction at 1 µM ([3]; P19, 192 h) | fold induction at 1 µM ([4]; C2C12, 192 h) | fold induction at 1 µM ([6]; C2C12, 192 h) | fold induction at 1 µM ([7]; C2C12, 192 h)
1 | COc1ccc(Nc2cccc(NCCO)n2)cc1 [example 42, 2-(6-(4-Methoxyphenylamino)pyridin-2-ylamino)ethan-1-ol] | 1.3 to 2 | > 2 | 1.3 to 2 | increase in the luciferase signal in all three reporter assays | 1.3 to 2 | generated an increase in the luciferase signal | increase in the luciferase signal in all three reporter assays | 1.3 to 2 | 1.3 to 2 |  |  |  |  |  |  |  |  | 
2 | COc1ccc(Nc2cc(NCCCO)ncn2)cc1 [example 2, 3-(6-(4-Methoxyphenylamino)pyrimidine-4-ylamino)propan-1-ol] | < 1.3 | > 2 | 1.3 to 2 |  | 1.3 to 2 |  |  | < 1.3 | < 1.3 | 151 to 152 | moderately increase |  |  |  |  |  |  | 
3 | COc1ccc(Nc2cc(NCCO)ncn2)cc1 [example 1, 2-(6-(4-Methoxyphenylamino)pyrimidine-4-ylamino)ethan-1-ol] | < 1.3 | < 1.3 | 1.3 to 2 |  | < 1.3 |  |  | > 2 | < 1.3 |  | moderately increase | significantly speeds |  |  |  |  |  | 
4 | OCCNc1cc(Nc2ccc(Oc3ccccc3)cc2)ncn1 [example 8, 2-(6-(4-Phenoxyphenylamino)pyrimidin-4-ylamino)ethan-1-ol] | < 1.3 | 1.3 to 2 | < 1.3 |  | 1.3 to 2 |  |  | < 1.3 | < 1.3 | 154 to 156 |  |  |  |  |  |  |  | 
5 | OCCNc1cc(Nc2ccc(Nc3ccccc3)cc2)ncn1 [example 7, 2-(6-(4-(Phenylamino)phenylamino)pyrimidin-4-ylamino)ethan-1-ol] | < 1.3 | < 1.3 | < 1.3 |  | < 1.3 |  |  | < 1.3 | < 1.3 | 154 to 155 |  |  |  |  |  |  |  | 
6 | COc1ccc(Nc2ccnc(NCCO)c2)cc1 [example 40, 2-(4-(4-Methoxyphenylamino)pyridin-2-ylamino)ethan-1-ol] | < 1.3 | < 1.3 | < 1.3 |  | < 1.3 |  |  | < 1.3 | < 1.3 | 164 to 165 |  |  |  |  |  |  |  | 
7 | OCCNc1cc(Nc2ccc(N3CCOCC3)cc2)ncn1 [example 4, 2-(6-(4-Morpholinophenylamino)pyrimidin-4-ylamino)ethan-1-ol] | < 1.3 | 1.3 to 2 | < 1.3 |  | < 1.3 |  |  | < 1.3 | < 1.3 | 204 to 207 |  |  |  |  |  |  |  | 
8 | c1nc(Nc2ccc(N3CCOCC3)cc2)cc(NC2CCCCC2)n1 [example 5, N^4-Cyclohexyl-N^6-(4-morpholinophenyl)pyrimidine-4,6-diamine] |  |  |  |  |  |  |  |  |  | 239 to 240 |  |  | < 1.3 | < 1.3 | 1.3 to 2 | < 1.3 | < 1.3 | < 1.3
